ChEMBL document CHEMBL1153247, “Synthesis and biological evaluation of substituted 2-phenyl-2H-indazole-7-carboxamides as potent poly(ADP-ribose) polymerase (PARP) inhibitors” (Bioorg Med Chem Lett, 2010)
Several values for one entry are separate records, joined by “and”; a condition that tells them apart may be missing. Equal values may be shown once.

How the values were obtained:
[1] = target: Poly [ADP-ribose] polymerase 1 (Homo sapiens, UniProt P09874); test: Inhibition of human PARP1 after 3 hrs using [3H]NAD+ by scintillation proximity assay
HeLa [2] = test: Cytotoxicity against human BRCA1 deficient HeLa cells after 7 days by fluorimetric analysis; type: functional, cell-based; details: 168 h
HeLa [3] = test: Cytotoxicity against human HeLa cells expressing BRCA1 after 7 days by fluorimetric analysis; type: functional; details: 168 h
[4] = (§1) Oral bioavailability in rat; type: ADME, organism-based; details: in vivo
[5] = Clearance in rat; type: ADME, organism-based; details: in vivo
[6] = Intrinsic clearance in rat microsomes; type: ADME, Microsome
Rattus norvegicus = test: as §1; type: ADME, organism-based; details: in vivo

Chain of Poly [ADP-ribose] polymerase 1 (P09874 whole entry): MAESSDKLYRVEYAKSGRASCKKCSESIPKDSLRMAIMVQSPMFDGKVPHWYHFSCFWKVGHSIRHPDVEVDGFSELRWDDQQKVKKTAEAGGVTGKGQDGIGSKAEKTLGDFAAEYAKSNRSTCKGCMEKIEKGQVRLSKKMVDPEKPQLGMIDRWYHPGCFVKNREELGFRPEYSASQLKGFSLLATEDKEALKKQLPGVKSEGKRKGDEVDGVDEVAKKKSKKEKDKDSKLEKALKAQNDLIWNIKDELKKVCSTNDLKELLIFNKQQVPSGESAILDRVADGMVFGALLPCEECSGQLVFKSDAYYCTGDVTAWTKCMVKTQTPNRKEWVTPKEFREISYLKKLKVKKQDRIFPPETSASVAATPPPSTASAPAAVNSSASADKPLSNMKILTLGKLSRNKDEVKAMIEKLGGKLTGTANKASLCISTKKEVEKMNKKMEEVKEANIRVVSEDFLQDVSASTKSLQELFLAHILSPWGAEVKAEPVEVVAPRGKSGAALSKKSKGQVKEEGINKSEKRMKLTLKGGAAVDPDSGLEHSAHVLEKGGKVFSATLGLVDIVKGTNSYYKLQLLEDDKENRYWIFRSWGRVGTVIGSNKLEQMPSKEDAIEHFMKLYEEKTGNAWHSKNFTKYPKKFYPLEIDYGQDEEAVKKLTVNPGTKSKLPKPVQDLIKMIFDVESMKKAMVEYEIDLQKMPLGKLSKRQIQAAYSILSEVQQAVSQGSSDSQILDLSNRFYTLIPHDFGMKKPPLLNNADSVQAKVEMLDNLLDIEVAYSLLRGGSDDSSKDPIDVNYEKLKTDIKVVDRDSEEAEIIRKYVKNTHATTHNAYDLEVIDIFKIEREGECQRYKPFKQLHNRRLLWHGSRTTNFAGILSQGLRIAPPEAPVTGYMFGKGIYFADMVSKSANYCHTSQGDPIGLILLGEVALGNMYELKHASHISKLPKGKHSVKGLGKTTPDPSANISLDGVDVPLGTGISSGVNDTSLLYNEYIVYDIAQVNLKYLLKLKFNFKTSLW

IC50 [1] | bioavailability [4] | clearance [5] | microsomal CLint [6] | F (Rattus norvegicus) | Compound | IC50 (HeLa [2]) | CC50 (HeLa [3])
0.016 µM | 66% | 26 mL/min/kg | – | – | CN1CCC(C(=O)Nc2ccc(-n3cc4cc(F)cc(C(N)=O)c4n3)cc2)CC1 | 0.52 µM | 2.7 µM
0.01 µM | – | – | – | – | CN(C)CCNC(=O)c1ccc(-n2cc3cccc(C(N)=O)c3n2)cc1 | 5.4 µM | 8.9 µM
0.065 µM | – | – | – | – | NC(=O)c1cccc2cn(-c3ccc(CNC(=O)C4CNC4)cc3)nc12 | > 20 µM | > 20 µM
0.008 µM | – | – | – | – | CNCc1ccc(-n2cc3c(F)ccc(C(N)=O)c3n2)cc1 | 2.5 µM | 6.3 µM
0.02 µM | – | – | – | – | CNCc1ccc(-n2cc3ccc(F)c(C(N)=O)c3n2)cc1 | 1.6 µM | > 10 µM
0.054 µM | – | – | – | – | NC(=O)c1cccc2cn(-c3ccc(C(=O)NCCN4CCOCC4)cc3)nc12 | 7.6 µM | > 20 µM
0.005 µM | 3% | 13 mL/min/kg | – | – | NC(=O)c1cc(F)cc2cn(-c3ccc(NC(=O)C4CNC4)cc3)nc12 | 0.31 µM | 5.9 µM
0.006 µM | – | – | – | – | CN1CC(C(=O)Nc2ccc(-n3cc4cc(F)cc(C(N)=O)c4n3)cc2)C1 | 0.72 µM | 2.6 µM
0.02 µM | – | – | – | – | CNCc1ccc(-n2nc3c(C(N)=O)cccc3c2Cl)cc1 | 5.9 µM | 11 µM
0.18 µM | – | – | – | – | CNCc1ccc(-n2cc3c(Cl)ccc(C(N)=O)c3n2)cc1 | 5.2 µM | 4.3 µM
0.54 µM | – | – | – | – | CNCc1ccc(-n2cc3c(O)ccc(C(N)=O)c3n2)cc1 | > 20 µM | > 20 µM
0.03 µM | 47% | 23 mL/min/kg | – | – | CN1CCC[C@@H](C(=O)Nc2ccc(-n3cc4cccc(C(N)=O)c4n3)cc2)C1 | 0.82 µM | 4.3 µM
0.006 µM | – | – | – | – | CN1CC(C(=O)Nc2ccc(-n3cc4cc(F)cc(C(N)=O)c4n3)cc2F)C1 | 0.48 µM | 1.6 µM
0.02 µM | – | 42 mL/min/kg | – | – | CN1CCC[C@H](C(=O)Nc2ccc(-n3cc4cccc(C(N)=O)c4n3)cc2)C1 | 1.3 µM | 6 µM
0.015 µM | – | – | – | – | CN(C)CC(=O)Nc1ccc(-n2cc3cccc(C(N)=O)c3n2)cc1 | 1.5 µM | 5 µM
0.002 µM | – | – | – | – | CNCc1ccc(-n2cc3cc(F)cc(C(N)=O)c3n2)cc1F | 0.026 µM | 1.5 µM
0.005 µM | – | – | – | – | CNCc1ccc(-n2cc3cccc(C(N)=O)c3n2)cc1 | 0.5 µM | 5.6 µM
0.01 µM | – | 13 mL/min/kg | 1 µL/min/mg | 1% and 3% | NC(=O)c1cccc2cn(-c3ccc(NC(=O)C4CNC4)cc3)nc12 | 0.92 µM | > 20 µM
> 1 µM | – | – | – | – | CNCc1ccc(-n2cc3c(OC)ccc(C(N)=O)c3n2)cc1 | 3.4 µM | 5.5 µM

Continued, molecule first:

Compound | IC50 [1] | bioavailability [4] | clearance [5] | microsomal CLint [6] | F (Rattus norvegicus) | IC50 (HeLa [2]) | CC50 (HeLa [3])
NC(=O)c1cc(F)cc2cn(-c3ccc(NC(=O)C4CNC4)c(F)c3)nc12 | 0.004 µM | – | – | – | – | 0.042 µM | 0.65 µM
NC(=O)c1cccc2cn(-c3ccc(C(=O)NCCN4CCCC4)cc3)nc12 | 0.02 µM | – | – | – | – | 3.3 µM | 8 µM
NC(=O)c1cccc2cn(-c3ccc(NC(=O)CN4CCCCC4)cc3)nc12 | 0.02 µM | – | – | – | – | 1.4 µM | 3 µM
NC(=O)c1cccc2cn(-c3ccc(NC(=O)CN4CCOCC4)cc3)nc12 | 0.03 µM | – | – | – | – | 5 µM | > 6 µM
CN1CCCC(C(=O)NCc2ccc(-n3cc4cccc(C(N)=O)c4n3)cc2)C1 (stereo not drawn) | 0.022 µM | – | – | – | – | 2.3 µM | 9.4 µM
CNCc1ccc(-n2cc3cccc(C(N)=O)c3n2)cc1C(F)(F)F | 0.005 µM | – | – | – | – | 6.2 µM | > 20 µM
CNCc1ccc(-n2cc3cccc(C(N)=O)c3n2)cc1OC | 0.004 µM | – | – | – | – | 1.9 µM | 11 µM
CNCc1ccc(-n2cc3c(F)c(F)cc(C(N)=O)c3n2)cc1 | 0.025 µM | – | – | – | – | 2.6 µM | > 5 µM
NC(=O)c1cccc2cn(-c3ccccc3)nc12 | 0.025 µM | – | – | – | – | – | –
CN(Cc1ccc(-n2cc3cccc(C(N)=O)c3n2)cc1)C(=O)C1CNC1 | 0.018 µM | – | – | – | – | > 20 µM | 20 µM
CN1CCC(C(=O)Nc2ccc(-n3cc4cccc(C(N)=O)c4n3)cc2)CC1 | 0.01 µM | – | – | – | – | 3.6 µM | 8.4 µM
CNCc1ccc(-n2cc3cc(F)cc(C(N)=O)c3n2)c(F)c1 | 0.006 µM | – | – | – | – | 0.23 µM | 4.2 µM
CN1CCC[C@@H](C(=O)Nc2ccc(-n3cc4cc(F)cc(C(N)=O)c4n3)cc2F)C1 | 0.012 µM | – | – | – | – | 0.44 µM | 1.8 µM
NC(=O)c1cccc2cn(-c3ccc(C(=O)NCCN4CCCCC4)cc3)nc12 | 0.038 µM | – | – | – | – | 3 µM | 6.4 µM
NC(=O)c1cccc2cn(-c3ccc(C(=O)NCc4ccncc4)cc3)nc12 | 0.01 µM | – | – | – | – | 3.9 µM | 8.7 µM
NC(=O)c1cccc2cn(-c3ccc(C(=O)Nc4ccncc4)cc3)nc12 | 0.03 µM | – | – | – | – | 7.3 µM | > 50 µM
NC(=O)c1cccc2cn(-c3ccc(C(=O)N4CCCNCC4)cc3)nc12 | 0.022 µM | – | – | – | – | > 10 µM | > 20 µM
NC(=O)c1cccc2cn(-c3cccc(C(=O)N4CCCNCC4)c3)nc12 | 0.04 µM | – | – | – | – | > 20 µM | > 20 µM
CN1CCC[C@H]1C(=O)Nc1ccc(-n2cc3cccc(C(N)=O)c3n2)cc1 | 0.017 µM | – | – | – | – | 1.2 µM | 5 µM
CNCc1ccc(-n2cc3cccc(C(N)=O)c3n2)cc1F | 0.004 µM | – | – | – | – | 0.2 µM | 3.8 µM
CNCc1ccc(-n2cc3cc(Cl)cc(C(N)=O)c3n2)cc1 | 0.005 µM | – | – | – | – | 0.26 µM | 1 µM
CNCc1ccc(-n2cc3cccc(C(N)=O)c3n2)cc1O | 0.012 µM | – | – | – | – | 3.4 µM | > 10 µM
NC(=O)c1cccc2cn(-c3ccc(NC(=O)CN4CCCC4)cc3)nc12 | 0.01 µM | – | – | – | – | 0.93 µM | 2.8 µM
CN1CCCC(C(=O)N(C)Cc2ccc(-n3cc4cccc(C(N)=O)c4n3)cc2)C1 (stereo not drawn) | 0.025 µM | – | – | – | – | 8.6 µM | > 20 µM
CNCc1ccc(-n2cc3cc(F)cc(C(N)=O)c3n2)cc1 | 0.0014 µM | – | – | – | – | 0.094 µM | 1.8 µM
CN1CCCCC1C(=O)Nc1ccc(-n2cc3cccc(C(N)=O)c3n2)cc1 (racemic) | 0.046 µM | – | – | – | – | 2.6 µM | 6.7 µM
